Species: Rattus norvegicus
Assay: DrugMatrix - Regimen: Daily Repeat
Format: toxicity, organism-based, Sprague-Dawley
Parameters: regimen Daily Repeat, gender Male, age 6-8 weeks
Conditions: in vivo, po, route oral GAVAGE, […]; for ABSOLUTE BASOPHIL / ABSOLUTE EOSINOPHIL / ABSOLUTE LYMPHOCYTE / ABSOLUTE MONOCYTE / ABSOLUTE SEGMENTED NEUTROPHIL / BASOPHIL / EOSINOPHIL / ERYTHROCYTE COUNT / HEMATOCRIT / HEMOGLOBIN / LEUKOCYTE COUNT / LYMPHOCYTE / MEAN CORPUSCULAR HEMOGLOBIN / MEAN CORPUSCULAR HEMOGLOBIN CONCENTRATION / MEAN CORPUSCULAR VOLUME / MONOCYTE / NEUTROPHIL / NUCLEATED RED BLOOD CELLS / PLATELET COUNT: tissue Blood; for ALANINE AMINOTRANSFERASE / ALBUMIN / ALKALINE PHOSPHATASE / ASPARTATE AMINOTRANSFERASE / BLOOD UREA NITROGEN / CARBON DIOXIDE / CHLORIDE / CHOLESTEROL / CREATINE PHOSPHOKINASE / CREATININE / GLUCOSE / LACTATE DEHYDROGENASE / LIPASE / PHOSPHORUS / POTASSIUM / SODIUM / TOTAL BILIRUBIN / TOTAL PROTEIN / URIC ACID: tissue Plasma
[1] = 0.6 mg/kg, 120 h, dose level Low, time 5 day
[2] = 4.5 mg/kg, 72 h, dose level High, time 3 day
[3] = 4.5 mg/kg, 120 h, dose level High, time 5 day

O=C(O)CCCc1ccc(N(CCCl)CCCl)cc1 [CHLORAMBUCIL]
ABSOLUTE BASOPHIL [1]: 0 CELLS/uL | ABSOLUTE EOSINOPHIL [1]: 245.67 CELLS/uL | ABSOLUTE LYMPHOCYTE [1]: 10916 CELLS/uL | ABSOLUTE MONOCYTE [1]: 468.33 CELLS/uL | ABSOLUTE SEGMENTED NEUTROPHIL [1]: 1403.33 CELLS/uL | BASOPHIL [1]: 0% | EOSINOPHIL [1]: 1.67% | ERYTHROCYTE COUNT [1]: 5.48 x10E6/uL | HEMATOCRIT [1]: 34.97% | HEMOGLOBIN [1]: 13.77 G/DL | LEUKOCYTE COUNT [1]: 13.03 x10E3/uL | LYMPHOCYTE [1]: 84.33% | MEAN CORPUSCULAR HEMOGLOBIN [1]: 25.13 pg | MEAN CORPUSCULAR HEMOGLOBIN CONCENTRATION [1]: 39.37 G/DL | MEAN CORPUSCULAR VOLUME [1]: 63.77 fL | MONOCYTE [1]: 3.67% | NEUTROPHIL [1]: 10.33% | NUCLEATED RED BLOOD CELLS [1]: 0 /100WBC | PLATELET COUNT [1]: 1176 x10E3/uL | ALANINE AMINOTRANSFERASE [1]: 57.33 u/L | ALBUMIN [1]: 4.03 G/DL | ALKALINE PHOSPHATASE [1]: 437.67 u/L | ASPARTATE AMINOTRANSFERASE [1]: 74.67 u/L | BLOOD UREA NITROGEN [1]: 12 mg/dL | CARBON DIOXIDE [1]: 24.33 mmol/L | CHLORIDE [1]: 100.67 MEQ/L | CHOLESTEROL [1]: 76.67 mg/dL | CREATINE PHOSPHOKINASE [1]: 301 u/L | CREATININE [1]: 0.16 mg/dL | GLUCOSE [1]: 184.33 mg/dL | LACTATE DEHYDROGENASE [1]: 187.33 u/L | LIPASE [1]: 7 u/L | PHOSPHORUS [1]: 10.63 mg/dL | POTASSIUM [1]: 6.13 MEQ/L | SODIUM [1]: 139.57 MEQ/L | TOTAL BILIRUBIN [1]: 0.13 mg/dL | TOTAL PROTEIN [1]: 5.83 G/DL | URIC ACID [1]: 1.33 mg/dL | ABSOLUTE BASOPHIL [2]: 0 CELLS/uL | ABSOLUTE EOSINOPHIL [2]: 76.67 CELLS/uL | ABSOLUTE LYMPHOCYTE [2]: 5496.33 CELLS/uL | ABSOLUTE MONOCYTE [2]: 177.33 CELLS/uL | ABSOLUTE SEGMENTED NEUTROPHIL [2]: 816.33 CELLS/uL | BASOPHIL [2]: 0% | EOSINOPHIL [2]: 1.33% | ERYTHROCYTE COUNT [2]: 5.43 x10E6/uL | HEMATOCRIT [2]: 34.5% | HEMOGLOBIN [2]: 13.73 G/DL | LEUKOCYTE COUNT [2]: 6.57 x10E3/uL | LYMPHOCYTE [2]: 84.33% | MEAN CORPUSCULAR HEMOGLOBIN [2]: 25.33 pg | MEAN CORPUSCULAR HEMOGLOBIN CONCENTRATION [2]: 39.77 G/DL | MEAN CORPUSCULAR VOLUME [2]: 63.67 fL | MONOCYTE [2]: 2.67% | NEUTROPHIL [2]: 11.67% | NUCLEATED RED BLOOD CELLS [2]: 0 /100WBC | PLATELET COUNT [2]: 1208.33 x10E3/uL | ALANINE AMINOTRANSFERASE [2]: 50 u/L | ALBUMIN [2]: 4.1 G/DL | ALKALINE PHOSPHATASE [2]: 336 u/L | ASPARTATE AMINOTRANSFERASE [2]: 69 u/L | BLOOD UREA NITROGEN [2]: 13 mg/dL | CARBON DIOXIDE [2]: 25.33 mmol/L | CHLORIDE [2]: 100.33 MEQ/L | CHOLESTEROL [2]: 70.67 mg/dL | CREATINE PHOSPHOKINASE [2]: 260.33 u/L | CREATININE [2]: 0.34 mg/dL | GLUCOSE [2]: 191.33 mg/dL | LACTATE DEHYDROGENASE [2]: 111 u/L | LIPASE [2]: 9 u/L | PHOSPHORUS [2]: 12.53 mg/dL | POTASSIUM [2]: 6.51 MEQ/L | SODIUM [2]: 140.03 MEQ/L | TOTAL BILIRUBIN [2]: 0.1 mg/dL | TOTAL PROTEIN [2]: 5.57 G/DL | URIC ACID [2]: 2.1 mg/dL | ABSOLUTE BASOPHIL [3]: 0 CELLS/uL | ABSOLUTE EOSINOPHIL [3]: 0 CELLS/uL | ABSOLUTE LYMPHOCYTE [3]: 1406 CELLS/uL | ABSOLUTE MONOCYTE [3]: 62.67 CELLS/uL | ABSOLUTE SEGMENTED NEUTROPHIL [3]: 98 CELLS/uL | BASOPHIL [3]: 0% | EOSINOPHIL [3]: 0% | ERYTHROCYTE COUNT [3]: 5.5 x10E6/uL | HEMATOCRIT [3]: 34.17% | HEMOGLOBIN [3]: 13.53 G/DL | LEUKOCYTE COUNT [3]: 1.57 x10E3/uL | LYMPHOCYTE [3]: 90% | MEAN CORPUSCULAR HEMOGLOBIN [3]: 24.63 pg | MEAN CORPUSCULAR HEMOGLOBIN CONCENTRATION [3]: 39.63 G/DL | MEAN CORPUSCULAR VOLUME [3]: 62.13 fL | MONOCYTE [3]: 4% | NEUTROPHIL [3]: 6% | NUCLEATED RED BLOOD CELLS [3]: 0 /100WBC | PLATELET COUNT [3]: 1169.33 x10E3/uL | ALANINE AMINOTRANSFERASE [3]: 45 u/L | ALBUMIN [3]: 3.97 G/DL | ALKALINE PHOSPHATASE [3]: 263.67 u/L | ASPARTATE AMINOTRANSFERASE [3]: 75.33 u/L | BLOOD UREA NITROGEN [3]: 13 mg/dL | CARBON DIOXIDE [3]: 24.33 mmol/L | CHLORIDE [3]: 101 MEQ/L | CHOLESTEROL [3]: 70.67 mg/dL | CREATINE PHOSPHOKINASE [3]: 644 u/L | CREATININE [3]: 0.13 mg/dL | GLUCOSE [3]: 157 mg/dL | LACTATE DEHYDROGENASE [3]: 154 u/L | LIPASE [3]: 7.33 u/L | PHOSPHORUS [3]: 9.53 mg/dL | POTASSIUM [3]: 6.16 MEQ/L | SODIUM [3]: 140.2 MEQ/L | TOTAL BILIRUBIN [3]: 0.2 mg/dL | TOTAL PROTEIN [3]: 5.73 G/DL | URIC ACID [3]: 1.3 mg/dL
